{"source": "patent US20220041588A1", "about": "“SUBSTITUTED IMIDAZO[1,2-A]PYRIDINE AND [1,2,4]TRIAZOLO[1,5-A]PYRIDINE COMPOUNDS AS RET KINASE INHIBITORS” (FOCHON PHARMACEUTICALS, LTD., priority 2018, published 2022)", "test_system": "TT (RET C634W) cells", "experiment": "Cell proliferation assay (MTS), TT cells", "type": "cell-based", "details": "Homo sapiens, TT, 72 h, 72 h incubation, MTS readout", "procedure": "MTS testing kit was purchased from Promega. The RPMI-1640, F12, F12K, Fetal bovine serum and Penicillin-Streptomycin were purchased from BI. Glutamine and Dimethyl sulfoxide (DMSO) were purchased from Sigma. TT cells were cultured in F12K supplemented with 10% FBS and LC-2/ad cells were cultured in HamF12: RPMI1640 (1:1) supplemented with 10% FBS and 2 mM Glutamine.\nTo investigate whether a compound is able to inhibit the activity of RET fusion and/or mutation in cells, a mechanism-based assay using TT (RET C634W) and LC-2/ad (CCDCl6-RET) cell lines was developed. In this assay, the inhibition of RET fusion and/or mutation was reflected by the inhibition of cell proliferation of TT and LC-2/ad cells. Cells were plated into 96-well plates at the optimized cell density (TT: 5000 cells/well; LC-2/ad: 5000 cells/well). Plates were incubated at 37° C., with 5% CO2 for 24 h. Compounds were serially diluted and added to the plates with the final concentrations as 10000, 3333.3, 1111.1, […], 123.5, 41.2, 13.7, 4.6 and 1.5 nM. Plates were incubated at 37° C., with 5% CO2 for 72 h. An aliquot of 20 μL MTS/100 μL medium mixture solution were added to each well and the plates were incubated for exactly 2 h. The reaction was stopped by adding 25 μL 10% SDS to each well. The absorbance was measured by a microplate reader at 490 nm and 650 nm (reference wavelength). IC50 was calculated using GraphPad Prism 5.0.", "data": [{"smiles": "Cn1cc(-c2cc(-c3ccc(N4CCN(Cc5cc(F)ccc5F)CC4)nc3)n3c(C#N)cnc3c2)cn1", "note": "[Example 8, 5-(6-(4-(2,5-difluorobenzyl)piperazin-1-yl)pyridin-3-yl)-7-(1-methyl-1H-pyrazol-4-yl)imidazo[1,2-a]pyridine-3-carbonitrile]", "values": [{"measurement": "IC50", "value": 39, "unit": "nM"}]}, {"smiles": "Cc1cccnc1CN1CCN(c2ccc(-c3cc(-c4cnn(C)c4)cc4ncc(C#N)n34)cn2)CC1", "note": "[Example 9, 7-(1-methyl-1H-pyrazol-4-yl)-5-(6-(4-((3-methylpyridin-2-yl)methyl)pi-perazin-1-yl)pyridin-3-yl)imidazo[1,2-a]pyridine-3-carbonitrile]", "values": [{"measurement": "IC50", "value": 79, "unit": "nM"}]}, {"smiles": "C[C@@H](C(=O)N1CCN(c2ccc(-c3cc(-c4cnn(C)c4)cc4ncc(C#N)n34)cn2)CC1)c1ccccc1", "note": "[Example 10, (R)-7-(1-methyl-1H-pyrazol-4-yl)-5-(6-(4-(2-phenylpropanoyl)piperazin-1-yl)pyridin-3-yl)imidazo[1,2-a]pyri-dine-3-carbonitrile]", "values": [{"measurement": "IC50", "value": 6, "unit": "nM"}]}, {"smiles": "COc1ccc(CN2CCN(c3ccc(-c4nc(-c5cnn(C)c5)cc5ncc(C#N)n45)cn3)CC2)nc1", "note": "[Example 24, 5-(6-(4-((5-methoxypyridin-2-yl)meth-yl)piperazin-1-yl)pyridin-3-yl)-7-(1-methyl-1H-pyrazol-4-yl)imidazo[1,2-c]pyrimidine-3-carbonitrile]", "values": [{"measurement": "IC50", "value": 86, "unit": "nM"}]}, {"smiles": "Cn1cc(-c2cc3ncc(C#N)n3c(-c3ccc(N4CCN(Cc5ccccc5)CC4)nc3)n2)cn1", "note": "[Example 25, 5-(6-(4-benzylpiperazin-1-yl)pyridin-3-yl)-7-(1-methyl-1H-pyrazol-4-yl) imidazo[1,2-c]pyrimidine-3-carbonitrile]", "values": [{"measurement": "IC50", "value": 79, "unit": "nM"}]}, {"smiles": "CN(C)c1ccc(CN2CCN(c3ccc(-c4cc(-c5cnn(C)c5)cc5ncc(C#N)n45)cn3)CC2)cn1", "note": "[Example 28, 5-(6-(4-((6-(dimethylamino)pyridin-3-yl)methyl)piperazin-1-yl)pyridin-3-yl)-7-(1-methyl-1H-pyrazol-4-yl)im-idazo[1,2-a]pyridine-3-carbonitrile]", "values": [{"measurement": "IC50", "value": 79, "unit": "nM"}]}, {"smiles": "COc1ccccc1CN1CCN(c2ccc(-c3cc(-c4cnn(C)c4)cc4ncc(C#N)n34)cn2)CC1", "note": "[Example 29, 5-(6-(4-(2-methoxybenzyl)piperazin-1-yl)pyridin-3-yl)-7-(1-methyl-1H-pyrazol-4-yl)imidazo[1,2-a]pyridine-3-carbonitrile]", "values": [{"measurement": "IC50", "value": 84, "unit": "nM"}]}, {"smiles": "Cn1cc(-c2cc(-c3ccc(N4CCN(Cc5c(F)cccc5F)CC4)nc3)n3c(C#N)cnc3c2)cn1", "note": "[Example 35, 5-(6-(4-(2,6-difluorobenzyl)piperazin-1-yl)pyridin-3-yl)-7-(1-methyl-1H-pyrazol-4-yl)imidazo[1,2-a]pyridine-3-carbonitrile]", "values": [{"measurement": "IC50", "value": 1, "unit": "nM"}]}, {"smiles": "Cn1cc(-c2cc(-c3ccc(N4CCN(Cc5ccc6ncn(C)c6c5)CC4)nc3)n3c(C#N)cnc3c2)cn1", "note": "[Example 36, 5-(6-(4-((1-methyl-1H-benzo[d]imid-azol-6-yl)methyl)piperazin-1-yl)pyri-din-3-yl)-7-(1-methyl-1H-pyrazol-4-yl)imidazo[1,2-a]pyridine-3-carboni-trile]", "values": [{"measurement": "IC50", "value": 62, "unit": "nM"}]}, {"smiles": "CN(C)[C@@H](C(=O)N1CCN(c2ccc(-c3cc(-c4cnn(C)c4)cc4ncc(C#N)n34)cn2)CC1)c1cccc(Cl)c1", "note": "[Example 39, (R)-5-(6-(4-(2-(3-chlorophenyl)-2-(dimethylamino)acetyl)piperazin-1-yl)pyridin-3-yl)-7-(1-methyl-1H-pyrazol-4-yl)imidazo[1,2-a]pyridine-3-car-bonitrile]", "values": [{"measurement": "IC50", "value": 39, "unit": "nM"}]}, {"smiles": "CN(C)C(C(=O)N1CCN(c2ccc(-c3cc(-c4cnn(C)c4)cc4ncc(C#N)n34)cn2)CC1)c1ccc(F)c(Cl)c1", "note": "(stereo not shown) [Example 41, 5-(6-(4-(2-(3-chloro-4-fluorophenyl)-2-(dimethylamino)acetyl)piperazin-1-yl)pyridin-3-yl)-7-(1-methyl-1H-pyrazol-4-yl)imidazo[1,2-a]pyridine-3-carbonitrile]", "values": [{"measurement": "IC50", "value": 12, "unit": "nM"}]}, {"smiles": "Cc1ccc(CC(=O)N2CCN(c3ccc(-c4cc(-c5cnn(C)c5)cc5ncc(C#N)n45)cn3)CC2)nc1", "note": "[Example 47, 7-(1-methyl-1H-pyrazol-4-yl)-5-(6-(4-(2-(5-methylpyridin-2-yl)acetyl)pi-perazin-1-yl)pyridin-3-yl)imidazo[1,2-a]pyridine-3-carbonitrile]", "values": [{"measurement": "IC50", "value": 88, "unit": "nM"}]}, {"smiles": "COc1ccc(CN2C3CC2CN(c2ccc(-c4cc(OCCN=S(C)(C)=O)cc5ncc(C#N)n45)cn2)C3)cn1", "note": "[Example 58, 7-(2-((Dimethyl(oxo)-λ^6-sulfanylidene)amino)ethoxy)-5-(6-(6-((6-methoxypyridin-3-yl)methyl)-3,6-diazabicyclo[3.1.1]heptan-3-yl)pyridin-3-yl)imidazo[1,2-a]pyridine-3-carbonitrile]", "values": [{"measurement": "IC50", "value": 120, "unit": "nM"}]}, {"smiles": "[2H]C([2H])([2H])Oc1ccc(OC2CCN(c3ccc(-c4cc(OCC(C)(C)O)cc5ncc(C#N)n45)cn3)CC2)cn1", "note": "[Example 61, 7-(2-Hydroxy-2-methylpropoxy)-5-(6-(4-((6-(methoxy-d3)pyridin-3-yl)oxy)piperidin-1-yl)pyridin-3-yl)imidazo[1,2-a]pyridine-3-carbonitrile]", "values": [{"measurement": "IC50", "value": 15, "unit": "nM"}]}, {"smiles": "COc1ccc(OC2CCN(c3ccc(-c4cc(OCCN=S(C)(C)=O)cc5ncc(C#N)n45)cn3)CC2)cn1", "note": "[Example 70, 7-(2-((dimethyl(oxo)-λ^6-sulfanylidene)ami-no)ethoxy)-5-(6-(4-((6-methoxypyridin-3-yl)oxy)piperidin-1-yl)pyridin-3-yl)imid-azo[1,2-a]pyridine-3-carbonitrile]", "values": [{"measurement": "IC50", "value": 71, "unit": "nM"}]}, {"smiles": "Cc1ccc(OC2CCN(c3ccc(-c4cc(OCC(C)(C)O)cc5ncc(C#N)n45)cn3)CC2)cn1", "note": "[Example 71, 7-(2-hydroxy-2-methylpropoxy)-5-(6-(4-((6-methylpyridin-3-yl)oxy)piperidin-1-yl)pyridin-3-yl)imidazo[1,2-a]pyridine-3-carbonitrile]", "values": [{"measurement": "IC50", "value": 22, "unit": "nM"}]}, {"smiles": "CC(C)(O)COc1cc(-c2ccc(N3CCC(Oc4ccc(C5CC5)nc4)CC3)nc2)n2c(C#N)cnc2c1", "note": "[Example 72, 5-(6-(4-((6-cyclopropylpyridin-3-yl)oxy)piperidin-1-yl)pyridin-3-yl)-7-(2-hydroxy-2-methylpropoxy)imidazo[1,2-a]pyridine-3-carbonitrile]", "values": [{"measurement": "IC50", "value": 17, "unit": "nM"}]}, {"smiles": "CCc1ccc(OC2CCN(c3ccc(-c4cc(OCC(C)(C)O)cc5ncc(C#N)n45)cn3)CC2)cn1", "note": "[Example 73, 5-(6-(4-((6-ethylpyridin-3-yl)oxy)piperidin-1-yl)pyridin-3-yl)-7-(2-hydroxy-2-meth-ylpropoxy)imidazo[1,2-a]pyridine-3-car-bonitrile]", "values": [{"measurement": "IC50", "value": 1, "unit": "nM"}]}, {"smiles": "Cc1ccc(OC2CCN(c3ccc(-c4cc(OCC5(O)CC5)cc5ncc(C#N)n45)cn3)CC2)cn1", "note": "[Example 74, 7-((1-hydroxycyclopropyl)methoxy)-5-(6-(4-((6-methylpyridin-3-yl)oxy)piperidin-1-yl)pyridin-3-yl)imidazo[1,2-a]pyridine-3-carbonitrile]", "values": [{"measurement": "IC50", "value": 23, "unit": "nM"}]}, {"smiles": "CCc1ccc(OC2CCN(c3ccc(-c4cc(OCC5(O)CC5)cc5ncc(C#N)n45)cn3)CC2)cn1", "note": "[Example 75, 5-(6-(4-((6-ethylpyridin-3-yl)oxy)piperidin-1-yl)pyridin-3-yl)-7-((1-hydroxycyclo-propyl)methoxy)imidazo[1,2-a]pyridine-3-carbonitrile]", "values": [{"measurement": "IC50", "value": 1, "unit": "nM"}]}, {"smiles": "N#Cc1cnc2cc(OCC3(O)CC3)cc(-c3ccc(N4CCC(Oc5ccc(C6CC6)nc5)CC4)nc3)n12", "note": "[Example 76, 5-(6-(4-((6-cyclopropylpyridin-3-yl)oxy)piperidin-1-yl)pyridin-3-yl)-7-((1-hydroxy-cyclopropyl)methoxy)imidazo[1,2-a]pyr-idine-3-carbonitrile]", "values": [{"measurement": "IC50", "value": 5, "unit": "nM"}]}, {"smiles": "CC(C)(O)COc1cc(-c2ccc(N3CCC(Oc4ccc(C(F)F)nc4)CC3)nc2)n2c(C#N)cnc2c1", "note": "[Example 77, 5-(6-(4-((6-(difluoromethyl)pyridin-3-yl)oxy)piperidin-1-yl)pyridin-3-yl)-7-(2-hy-droxy-2-methylpropoxy)imidazo[1,2-a]pyr-idine-3-carbonitrile]", "values": [{"measurement": "IC50", "value": 48, "unit": "nM"}]}, {"smiles": "N#Cc1cnc2cc(OCC3(O)CC3)cc(-c3ccc(N4CCC(Oc5ccc(C(F)F)nc5)CC4)nc3)n12", "note": "[Example 78, 5-(6-(4-((6-(difluoromethyl)pyridin-3-yl)oxy)piperidin-1-yl)pyridin-3-yl)-7-((1-hy-droxycyclopropyl)methoxy)imidazo[1,2-a]pyridine-3-carbonitrile]", "values": [{"measurement": "IC50", "value": 13, "unit": "nM"}]}, {"smiles": "CCOc1ccc(OC2CCN(c3ccc(-c4cc(OCC5(O)CC5)cc5ncc(C#N)n45)cn3)CC2)cn1", "note": "[Example 79, 5-(6-(4-((6-ethoxypyridin-3-yl)oxy)piperi-din-1-yl)pyridin-3-yl)-7-((1-hydroxycyclo-propyl)methoxy)imidazo[1,2-a]pyridine-3-carbonitrile]", "values": [{"measurement": "IC50", "value": 1, "unit": "nM"}]}, {"smiles": "C#Cc1ccc(OC2CCN(c3ccc(-c4cc(OCC(C)(C)O)cc5ncc(C#N)n45)cn3)CC2)cn1", "note": "[Example 80, 5-(6-(4-((6-ethynylpyridin-3-yl)oxy)piper-idin-1-yl)pyridin-3-yl)-7-(2-hydroxy-2-methylpropoxy)imidazo[1,2-a]pyridine-3-carbonitrile]", "values": [{"measurement": "IC50", "value": 7, "unit": "nM"}]}]}
